Source: patent US8536202B2, “Triazole-substituted anthranilamides as pesticides” (Bayer Cropscience AG, priority 2010, dated 2013)
Like-named read-outs stand apart in the source and are kept apart here.

How the values were obtained:
[1] = system: caterpillars of the armyworm (Spodoptera frugiperda); experiment: Spodoptera frugiperda test (SPODFR spray treatment); type: in vivo; details: 168 h; for pest or weed control at 100 g/ha: read-out: activity in %
Outline: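 Percent caterpillar mortality read 7 days after infestation (0% none killed, 100% all killed). Treatment was a spray of the acetone/DMF/emulsifier formulation, water-diluted to test concentration, onto Zea mays leaf discs, allowed to dry before larvae were added.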

[2] = log P determination by HPLC on reversed-phase columns (EEC Directive 79/831 Annex V.A8); type: physicochemical; details: pH 2.7
Outline: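 Calibration used unbranched alkan-2-ones of 3 to 16 carbons with known log P, values interpolated linearly from retention times between neighbouring standards. Acidic-range LC-MS run at pH 2.7, eluents aqueous and acetonitrile formic acid 0.1%, linear gradient 10% to 95% acetonitrile.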

[3] = system: larvae of the mustard beetle (Phaedon cochleariae); experiment: Phaedon test (PHAECO spray treatment); type: in vivo; details: 168 h, read-out: activity in %
Outline: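 Mortality of mustard beetle larvae, expressed as percent killed (100% all, 0% none), assessed 7 days after spraying. Spray liquor made from compound in acetone plus dimethylformamide with alkylaryl polyglycol ether, diluted in emulsifier-containing water to the desired concentration.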

[4] = reversed-phase C18 HPLC column, HPLC on reversed-phase columns (C 18), EEC Directive 79/831 Annex V.A8, read-out: logP
[5] = HPLC on reversed-phase columns (C 18), EEC Directive 79/831 Annex V.A8, read-out: logP

| chromatographic logP [2, 4] | Structure (SMILES) | pest or weed control at 100 g/ha ([1]; 100 g/ha, after 7 days) [%] | chromatographic logP [2] | pest or weed control at 100 g/ha ([3]; 100 g/ha, after 7 days) [%] | pest or weed control at 20 g/ha ([1]; after 7 days) [%] | pest or weed control at 100 g/ha [1] [%] | chromatographic logP [2, 5] | pest or weed control at 100 g/ha [3] [%] |
| --- | --- | --- | --- | --- | --- | --- | --- | --- |
|  | CNC(=O)c1cc(I)cc(C)c1NC(=O)c1cc(Cn2nc(C(F)(F)F)c(C(F)(F)F)n2)nn1-c1ncccc1Cl [Example 405] | 100 | 4.03 | 100 |  |  |  |  |
|  | Cc1cc(Cl)cc(C(=O)NC2CC2)c1NC(=O)c1cc(Cn2nc(C(F)(F)F)c(C(F)(F)F)n2)nn1-c1ncccc1Cl [Example 394] | 100 | 3.96 | 100 |  |  |  |  |
| 4.15 | Cc1cc(Cl)cc(C(=O)NC(C)C2CC2)c1NC(=O)c1cc(Cn2cc(C(F)(C(F)(F)F)C(F)(F)F)nn2)nn1-c1ncccc1Cl (stereo not drawn) [Example 226] |  |  | 100 | 100 |  |  |  |
|  | CNC(=O)c1cc(C#N)cc(C)c1NC(=O)c1cc(Cn2ncc(-c3cccc(Cl)c3)n2)nn1-c1ncccc1Cl [Example 44] | 100 | 3.23 | 100 |  |  |  |  |
| 4.73 | CSC[C@H](C)NC(=O)c1cc(I)cc(C)c1NC(=O)c1cc(Cn2ncc(C(F)(C(F)(F)F)C(F)(F)F)n2)nn1-c1ncccc1Cl [Example 270] |  |  | 100 | 100 |  |  |  |
|  | CNC(=O)c1cc(C#N)cc(C)c1NC(=O)c1cc(Cn2ncc(-c3ccc(F)cc3)n2)nn1-c1ncccc1Cl [Example 40] | 100 | 2.96 | 100 |  |  |  |  |
|  | Cc1cc(C#N)cc(C(=O)NC2CC2)c1NC(=O)c1cc(Cn2ncc(C(F)(F)C(F)(F)C(F)(F)F)n2)nn1-c1ncccc1Cl [Example 376] |  |  |  |  | 100 | 3.63 | 100 |
|  | Cc1cc(I)cc(C(=O)NCC2CC2)c1NC(=O)c1cc(Cn2ncc(C(F)(F)C(F)(F)C(F)(F)F)n2)nn1-c1ncccc1Cl [Example 382] |  |  |  |  | 100 | 4.59 | 100 |
|  | Cc1cc(Cl)cc(C(=O)NCC2CC2)c1NC(=O)c1cc(Cn2ncc(C(F)(F)F)n2)nn1-c1ncccc1Cl [Example 141] | 100 | 3.55 | 100 |  |  |  |  |
|  | Cc1cc(C#N)cc(C(=O)NC(C)(C)C)c1NC(=O)c1cc(Cn2ncc(-c3ccccc3Cl)n2)nn1-c1ncccc1Cl [Example 64] | 100 | 4.03 | 100 |  |  |  |  |
|  | Cc1cc(I)cc(C(=O)NCC2CC2)c1NC(=O)c1cc(Cn2cc(C(F)(F)F)nn2)nn1-c1ncccc1Cl [Example 214] | 100 | 3.45 | 100 |  |  |  |  |
|  | CNC(=O)c1cc(Cl)cc(C)c1NC(=O)c1cc(Cn2nc3ccc(Br)cc3n2)nn1-c1ncccc1Cl [Example 87] | 100 | 3.39 | 100 |  |  |  |  |
|  | Cc1cc(F)cc(C(=O)NC2CC2)c1NC(=O)c1cc(Cn2ncc(C(F)(F)F)n2)nn1-c1ncccc1Cl [Example 169] | 100 | 2.86 | 100 |  |  |  |  |
|  | Cc1cc(I)cc(C(=O)NCC2CC2)c1NC(=O)c1cc(Cn2ncc(C(F)(F)F)n2)nn1-c1ncccc1Cl [Example 163] | 100 | 3.8 | 100 |  |  |  |  |
|  | Cc1cc(I)cc(C(=O)NC(C)C)c1NC(=O)c1cc(Cn2ncc(C(F)(C(F)(F)F)C(F)(F)F)n2)nn1-c1ncccc1Cl [Example 267] | 100 | 4.51 | 100 |  |  |  |  |
|  | Cc1cc(I)cc(C(=O)NC(C)C)c1NC(=O)c1cc(Cn2cc(C(F)(F)F)nn2)nn1-c1ncccc1Cl [Example 210] | 100 | 3.38 | 100 |  |  |  |  |
| 3.95 | Cc1cc(C#N)cc(C(=O)NCC2CC2)c1NC(=O)c1cc(Cn2ncc(C(F)(C(F)(F)F)C(F)(F)F)n2)nn1-c1ncccc1Cl [Example 253] | 100 |  | 100 |  |  |  |  |
| 4.61 | Cc1cc(Cl)cc(C(=O)NC(C)C2CC2)c1NC(=O)c1cc(Cn2ncc(C(F)(C(F)(F)F)C(F)(F)F)n2)nn1-c1ncccc1Cl (stereo not drawn) [Example 258] | 100 |  | 100 |  |  |  |  |
|  | Cc1cc(Cl)cc(C(N)=O)c1NC(=O)c1cc(Cn2nc(C(F)(F)F)c(C(F)(F)F)n2)nn1-c1ncccc1Cl [Example 407] | 100 | 3.49 | 100 |  |  |  |  |
| 4.13 | CC(C)(C)NC(=O)c1cc(Cl)cc(Cl)c1NC(=O)c1cc(Cn2cc(C(F)(C(F)(F)F)C(F)(F)F)nn2)nn1-c1ncccc1Cl [Example 244] | 100 |  | 100 |  |  |  |  |
|  | Cc1cc(I)cc(C(=O)NC(C)C)c1NC(=O)c1cc(Cn2cc(C(F)(F)C(F)(F)C(F)(F)F)nn2)nn1-c1ncccc1Cl [Example 322] |  |  |  |  | 100 | 4.07 | 100 |
|  | O=C(NC1CC1)c1cc(Cl)cc(Cl)c1NC(=O)c1cc(Cn2cc(C(F)(C(F)(F)F)C(F)(F)F)nn2)nn1-c1ncccc1Cl [Example 248] | 100 | 3.56 | 100 |  |  |  |  |
|  | Cc1cc(C#N)cc(C(=O)NC2CC2)c1NC(=O)c1cc(Cn2nc(C(F)(F)F)c(C(F)(F)F)n2)nn1-c1ncccc1Cl [Example 399] | 100 | 3.59 | 100 |  |  |  |  |
|  | N#CCNC(=O)c1cc(Cl)cc(Cl)c1NC(=O)c1cc(Cn2cc(C(F)(F)F)nn2)nn1-c1ncccc1Cl [Example 205] | 100 | 2.63 | 100 |  |  |  |  |
|  | Cc1cc(C#N)cc(C(=O)NC(C)(C)C)c1NC(=O)c1cc(Cn2ncc(-c3ccc(F)cc3)n2)nn1-c1ncccc1Cl [Example 61] | 100 | 3.72 | 100 |  |  |  |  |
|  | CNC(=O)c1cc(Cl)cc(C)c1NC(=O)c1cc(Cn2ncc(C(F)(C(F)(F)F)C(F)(F)F)n2)nn1-c1ncccc1Cl [Example 257] | 100 | 3.76 | 100 |  |  |  |  |
|  | Cc1cc(Cl)cc(C(=O)NCC2CC2)c1NC(=O)c1cc(Cn2ncc(C(F)(F)C(F)(F)C(F)(F)F)n2)nn1-c1ncccc1Cl [Example 366] |  |  |  |  | 100 | 4.34 | 100 |
|  | CCNC(=O)c1cc(Cl)cc(C)c1NC(=O)c1cc(Cn2ncc(C(F)(F)F)n2)nn1-c1ncccc1Cl [Example 138] | 100 | 3.26 | 100 |  |  |  |  |
|  | Cc1cc(I)cc(C(=O)NC(C)C2CC2)c1NC(=O)c1cc(Cn2ncc(C(F)(F)C(F)(F)C(F)(F)F)n2)nn1-c1ncccc1Cl (stereo not drawn) [Example 386] |  |  |  |  | 100 | 4.82 | 100 |
|  | Cc1cc(Cl)cc(C(=O)NC(C)C)c1NC(=O)c1cc(Cn2cc(C(F)(C(F)(F)F)C(F)(F)F)nn2)nn1-c1ncccc1Cl [Example 227] | 100 | 3.85 | 100 |  |  |  |  |
